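Where inhibition never reached the appropriate level, the endpoint shown equals the highest concentration tested. Otherwise, values were interpolated linearly from a five-concentration, 48-hour dose response in 96-well plates. GI50 is the concentration that inhibits growth by half.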 Activity calls are given as the source filed them. Cut-off read from the data, not from the text of the source: active = GI50 up to about 1.1 µM and inactive = higher.
Legend:
Test in all cases: NCI anticancer screen, dose series, 48 h
HOP-92 = tested on: HOP-92
MDA-MB-435 = tested on: MDA-MB-435
COLO 205 = tested on: COLO 205
786-0 = tested on: 786-0
UACC-62 = tested on: UACC-62
HT-29 = tested on: HT-29
MOLT-4 = tested on: MOLT-4
MDA-MB-231 = tested on: MDA-MB-231
K562 = tested on: K562
CAKI-1 = tested on: CAKI-1
Malme-3M = tested on: Malme-3M
TK-10 = tested on: TK-10
T47D = tested on: T47D
DU-145 = tested on: DU-145
SK-MEL-5 = tested on: SK-MEL-5
RXF 393 = tested on: RXF 393
SF-268 = tested on: SF-268
HL-60 = tested on: HL-60
SR = tested on: SR
NCI-H226 = tested on: NCI-H226
SK-OV-3 = tested on: SK-OV-3
NCI/ADR-RES = tested on: NCI/ADR-RES
SN12C = tested on: SN12C
BT-549 = tested on: BT-549
NCI-H522 = tested on: NCI-H522
Hs-578T = tested on: Hs-578T
HOP-62 = tested on: HOP-62
OVCAR-8 = tested on: OVCAR-8
CCRF-CEM = tested on: CCRF-CEM
SK-MEL-2 = tested on: SK-MEL-2
NCI-H23 = tested on: NCI-H23
OVCAR-4 = tested on: OVCAR-4
ACHN = tested on: ACHN
A498 = tested on: A498
HCT-116 = tested on: HCT-116
HCC 2998 = tested on: HCC 2998
UACC-257 = tested on: UACC-257
SF-295 = tested on: SF-295
OVCAR-3 = tested on: OVCAR-3
RPMI-8226 = tested on: RPMI-8226
HCT-15 = tested on: HCT-15
OVCAR-5 = tested on: OVCAR-5
SNB-75 = tested on: SNB-75
KM12 = tested on: KM12
A549 = tested on: A549
SK-MEL-28 = tested on: SK-MEL-28
U-251 = tested on: U-251
SNB-19 = tested on: SNB-19
EKVX = tested on: EKVX
PC-3 = tested on: PC-3
M14 = tested on: M14
MDA-N = tested on: MDA-N
LOX IMVI = tested on: LOX IMVI
SF-539 = tested on: SF-539
MCF7 = tested on: MCF7
SW-620 = tested on: SW-620
NCI-H460 = tested on: NCI-H460
UO-31 = tested on: UO-31
IGROV-1 = tested on: IGROV-1

`CCOC(=O)NC(Nc1ccc(F)cc1)(C(=O)OCC)C(F)(F)F` (stereo unspecified) was tested, and the GI50 (HOP-92) was > 100 µM (inactive), the GI50 (MDA-MB-435) was 0.268 µM (active) and the GI50 (COLO 205) was > 26 µM (inactive). The GI50 (786-0) was > 100 µM (inactive), the GI50 (UACC-62) was 0.121 µM (active) and the GI50 (HT-29) was > 100 µM (inactive). The GI50 (MOLT-4) was 6.71 µM (inactive), the GI50 (MDA-MB-231) was > 100 µM (inactive) and the GI50 (K562) was < 0.0307 µM (active). The GI50 (CAKI-1) was > 100 µM (inactive), the GI50 (Malme-3M) was > 100 µM (inactive) and the GI50 (TK-10) was > 24.7 µM (inactive). For the same molecule, the GI50 (T47D) was 3.72 µM (inactive), the GI50 (DU-145) was > 21.5 µM (inactive) and the GI50 (SK-MEL-5) was 0.192 µM (active). The GI50 (RXF 393) was > 100 µM (inactive), the GI50 (SF-268) was > 100 µM (inactive) and the GI50 (HL-60) was 0.526 µM (active). The GI50 (SR) was > 100 µM (inactive), the GI50 (NCI-H226) was > 100 µM (inactive) and the GI50 (SK-OV-3) was > 100 µM (inactive). For the same molecule, the GI50 (NCI/ADR-RES) was 12 µM (inactive), the GI50 (SN12C) was > 100 µM (inactive) and the GI50 (BT-549) was > 100 µM (inactive). For the same molecule, the GI50 (NCI-H522) was > 100 µM (inactive), the GI50 (Hs-578T) was > 100 µM (inactive) and the GI50 (HOP-62) was > 100 µM (inactive). The GI50 (OVCAR-8) was 7.06 µM (inactive), the GI50 (CCRF-CEM) was 3.28 µM (inactive) and the GI50 (SK-MEL-2) was 0.982 µM (active). The GI50 (NCI-H23) was > 100 µM (inactive), the GI50 (OVCAR-4) was > 50.8 µM (inactive) and the GI50 (ACHN) was 2.62 µM (inactive). For the same molecule, the GI50 (A498) was > 100 µM (inactive), the GI50 (HCT-116) was 3.12 µM (inactive) and the GI50 (HCC 2998) was > 100 µM (inactive). For the same molecule, the GI50 (UACC-257) was 3.47 µM (inactive), the GI50 (SF-295) was 8.38 µM (inactive) and the GI50 (OVCAR-3) was > 100 µM (inactive). For the same molecule, the GI50 (RPMI-8226) was 2.65 µM (inactive), the GI50 (HCT-15) was 29.6 µM and the GI50 (OVCAR-5) was > 100 µM (inactive). For the same molecule, the GI50 (SNB-75) was > 100 µM (inactive), the GI50 (KM12) was 0.556 µM (active) and the GI50 (A549) was 10.5 µM (inactive). For the same molecule, the GI50 (SK-MEL-28) was > 88.5 µM (inactive), the GI50 (U-251) was > 100 µM (inactive) and the GI50 (SNB-19) was > 100 µM (inactive). The GI50 (EKVX) was > 100 µM (inactive), the GI50 (PC-3) was 4.15 µM (inactive) and the GI50 (M14) was 0.156 µM (active). For the same molecule, the GI50 (MDA-N) was > 62.1 µM (inactive), the GI50 (LOX IMVI) was 0.153 µM (active) and the GI50 (SF-539) was > 100 µM (inactive). For the same molecule, the GI50 (MCF7) was > 66.7 µM (inactive), the GI50 (SW-620) was 1.22 µM (inactive) and the GI50 (NCI-H460) was > 21.7 µM (inactive). The GI50 (UO-31) was 8.59 µM (inactive).

`CC(/C=N/N(C)C1=NCCCN1)=N/N(C)C1=NCCCN1` was tested, and the GI50 (HOP-92) was > 100 µM (inactive), the GI50 (MDA-MB-435) was > 100 µM (inactive) and the GI50 (COLO 205) was > 100 µM (inactive). For the same molecule, the GI50 (786-0) was > 100 µM (inactive), the GI50 (UACC-62) was > 100 µM (inactive) and the GI50 (HT-29) was > 100 µM (inactive). For the same molecule, the GI50 (MOLT-4) was > 100 µM (inactive), the GI50 (MDA-MB-231) was > 100 µM (inactive) and the GI50 (K562) was > 100 µM (inactive). For the same molecule, the GI50 (CAKI-1) was > 100 µM (inactive), the GI50 (Malme-3M) was > 100 µM (inactive) and the GI50 (TK-10) was > 100 µM (inactive). For the same molecule, the GI50 (T47D) was > 100 µM (inactive), the GI50 (DU-145) was > 100 µM (inactive) and the GI50 (SK-MEL-5) was > 100 µM (inactive). For the same molecule, the GI50 (RXF 393) was > 100 µM (inactive), the GI50 (SF-268) was > 100 µM (inactive) and the GI50 (HL-60) was > 100 µM (inactive). For the same molecule, the GI50 (SR) was > 100 µM (inactive), the GI50 (NCI-H226) was > 100 µM (inactive) and the GI50 (SK-OV-3) was > 100 µM (inactive). The GI50 (NCI/ADR-RES) was > 100 µM (inactive), the GI50 (SN12C) was > 100 µM (inactive) and the GI50 (BT-549) was > 100 µM (inactive). For the same molecule, the GI50 (NCI-H522) was > 100 µM (inactive), the GI50 (Hs-578T) was > 100 µM (inactive) and the GI50 (HOP-62) was > 100 µM (inactive). For the same molecule, the GI50 (OVCAR-8) was > 100 µM (inactive), the GI50 (CCRF-CEM) was > 100 µM (inactive) and the GI50 (SK-MEL-2) was > 100 µM (inactive). The GI50 (NCI-H23) was > 100 µM (inactive), the GI50 (OVCAR-4) was > 100 µM (inactive) and the GI50 (ACHN) was > 100 µM (inactive). For the same molecule, the GI50 (A498) was > 100 µM (inactive), the GI50 (HCT-116) was > 100 µM (inactive) and the GI50 (HCC 2998) was > 100 µM (inactive). The GI50 (UACC-257) was > 100 µM (inactive), the GI50 (SF-295) was > 100 µM (inactive) and the GI50 (OVCAR-3) was > 100 µM (inactive). The GI50 (RPMI-8226) was > 100 µM (inactive), the GI50 (HCT-15) was over 100 µM and the GI50 (OVCAR-5) was > 100 µM (inactive). The GI50 (SNB-75) was > 100 µM (inactive), the GI50 (KM12) was > 100 µM (inactive) and the GI50 (A549) was > 100 µM (inactive). The GI50 (SK-MEL-28) was > 100 µM (inactive), the GI50 (U-251) was > 100 µM (inactive) and the GI50 (SNB-19) was > 100 µM (inactive). The GI50 (EKVX) was > 100 µM (inactive), the GI50 (PC-3) was > 100 µM (inactive) and the GI50 (IGROV-1) was > 100 µM (inactive). The GI50 (MDA-N) was > 100 µM (inactive), the GI50 (LOX IMVI) was > 100 µM (inactive) and the GI50 (SF-539) was > 100 µM (inactive). The GI50 (MCF7) was > 100 µM (inactive), the GI50 (SW-620) was > 100 µM (inactive) and the GI50 (NCI-H460) was > 100 µM (inactive). The GI50 (UO-31) was > 100 µM (inactive).

— ChEMBL document CHEMBL1201862, “PubChem BioAssay data set” (2004)
